Read-outs that look alike come from different tables or passages of the source.
Experiments:
PLK1 kinase = biological target: T1, PLK1 kinase (Homo sapiens, UniProt P53350); assay: Inhibitory activity on PLK1 kinase; format: biochemical; settings: for Imax: maximum effect caused by the compound at the test concentration
T1 construct: purchased Carnabio (Carna Biosciences) 05-157
Description: Detection solution PerkinElmer #TRF0218-M
Detection instrument PerkinElemer EnVision
a. Using the Echo machine, the compounds to be tested were diluted by 1:3 on a 384-well plate, and the highest concentration was 1 μM, with a total of 10 concentration points, and each concentration was tested in duplicate wells.
b. 5 μL/well of PLK1 kinase and peptide substrate mixture were added to the assay plate (containing controls).
d. The reaction was initiated by adding 5 μL/well of ATP solution;
e. The assay plate was centrifuged at 1000 rpm for about 15 seconds, a film was used to seal the assay plate which was incubated at 23° C. for a period of time;
f. A detection solution was added to all wells of the assay plate;
g. The assay plate was centrifuged at 1000 rpm for approximately 15 seconds, a film was used to seal the assay plate which was incubated at 23° C. for 60 min.
h. The assay plate was read on EnVision. The test results were analyzed using XLFIT5 software.

HCT116 cells = assay: Inhibitory activity on HCT116 cell proliferation (ATPlite); format: cell-based; settings: Homo sapiens
Description: Cell culture medium: RPMI1640+10% FBS (GBICO)
Cell culture plate: 96-well plate (Shanghai Jingan Biotechnology Co., Ltd.)
Detection kit: ATPlite 1step Luminescence (PerkinElmer)
Detection instrument: BioTek multifunctional microplate reader
2. Test method: HCT116 cells in the logarithmic growth phase were seeded into a white-wall clear-bottom 96-well plate at a density of 720 cells per well, and cultured overnight in a 37° C., 5% CO2 incubator. […] After adding the drug, culturing was continued for 72 h in a 37° C., 5% CO2 incubator.
GraphPad Prism 7.0 was used to process the data, the cell inhibition rate curve was obtained and IC50 was calculated.

[1] = Permeability and efflux transporter substrate evaluation in Caco-2 cells; format: in vitro ADME; design: Papp A→B at 120 min / Papp B→A at 120 min / efflux ratio at 120 min / Papp at 120 min: dose or concentration left out as unconfirmed; settings: human
Description: (§1) The cells were cultured in a carbon dioxide incubator for 21-28 days before being used for transport experiments. During this period, the culture medium was changed every four to five days.
(§2) This project uses Hank's balanced salt buffer (pH 7.40±0.05) containing 10 mM HEPES as the transport buffer. The culture medium was removed from the culture plate and the cells were washed twice with preheated transport buffer (approximately 75 μL and 40 mL of transport buffer for each apical well and basolateral receiver plate respectively). The donor solution and receiver solution were added to the corresponding cell plate wells (75 and 250 μL for each apical and basolateral well respectively), and the bidirectional transport experiment was started (apical to basolateral (A-B) and basolateral to apical (B-A)). The test concentration of the test substance was […], and two replicate wells were made for each dosing concentration. The test concentration of Digoxin was […], with dosing bidirectionally; the test concentrations of nadolol and metoprolol were both […], and they were dosed in one direction (A-B direction), and two replicate wells were made for each of the three control compounds.
(§3) The initial donor solution is the TO sample. After adding the sample, it was mixed with the transport buffer and stop solution in a certain proportion.
(§4) All samples were vortexed, and then centrifuged at 3220×g for 20 min at 20° C. A proper volume of supernatant was transferred to a sample assay plate, and the sample was stored at 2-8° C. if it was not analyzed immediately after the plate was sealed, and LC MS/MS method was used for analysis.
(§5) The Lucifer Yellow Rejection Assay was used to test the integrity of the Caco-2 cell layer.
(§6) The following formulas were used to calculate the apparent permeability coefficient (Papp, cm/s), efflux ratio (ER), and solution recovery (%) (% Solution Recovery).
(§7) [formula] [formula] [formula] • VR is the volume of the receiver side solution (side A is 0.075 mL, side B is 0.25 mL); Area is the relative surface area of the cell monolayer (0.0804 cm^2); Time is the incubation time (7200 s); C0 is the initial concentration (nM) of the test substance at the donor side or the peak area ratio of the control compound; VD is the volume of the donor side (side A is 0.075 mL, side B is 0.25 mL); CD and CR are the final concentration (nM) of the test substance at the donor side and the receiver side respectively or the peak area ratio of the control compound; • Lucifer yellow transmittance rate (% Lucifer Yellow) is calculated using the following formula:
(§8) [formula] • RFUApical and RFUBasolateral are the relative fluorescence intensity of lucifer yellow at the apical and basolateral sides respectively. VApical and VBasolateral are the sample loading volumes at the apical and basolateral sides respectively (0.075 and 0.25 mL respectively).

Caco-2 cells = assay: as above; format: in vitro ADME; design: Papp A→B at 120 min / Papp B→A at 120 min / efflux ratio at 120 min / Papp at 120 min: dose or concentration left out as unconfirmed; settings: Caco-2
Description: as §1, §2, §3, §4, §5, §6, §7, §8

[2] = Metabolic stability in mouse liver microsomes; format: in vitro ADME; settings: for CLint scaled at 1 µM / half-life at 1 µM: pH 7.4; for microsomal CLint at 1 µM: pH 7.4, read-out: CLint(mic)
Description: (§9) a. Preparation of phosphate buffer: The phosphate buffer powder was dissolved in 100 mL of pure water to prepare a phosphate buffer solution with a pH of 7.4 and a concentration of 100 mM, which was stored in a 4° C. refrigerator for later use.
(§10) b. All samples as well as the reference testosterone were dissolved in DMSO to obtain a 10 mM stock solution. The 10 mM stock solution was diluted to 100 μM with acetonitrile to obtain a working solution for later use.
(§11) c. Preparation of liver microsome working solution: Each of the mouse, rat and human liver microsome stock solutions (at concentration of 20 mg/mL) was taken and diluted to 0.56 mg/mL with 100 mM phosphate buffer solution to obtain the liver microsome working solution.
(§12) d. Preparation of solution: An appropriate amount of MgCl2 was weighed and used to prepare a MgCl2 solution at a concentration of 60 mM using 100 mM phosphate buffer solution. An appropriate amount of NADPH was weighed and used to prepare a NADPH solution at a concentration of 20 mM using 100 mM phosphate buffer solution. An equal volume of 60 mM MgCl2 solution was added to prepare an NADPH working solution containing 10 mM NADPH and 30 mM MgCl2. An acetonitrile solution containing 20 ng/mL tolbutamide was prepared as the stop solution.
(§13) e. Liver microsome incubation: 2 μL of each compound and the positive drug testosterone working solution were added to 178 μL of liver microsome working solution (0.56 mg/mL), mixed gently, and pre-incubated in a vibrating constant temperature water bath pot at 37° C. for 10 min. After adding 20 μL of NADPH working solution, the mixture was placed in a vibrating constant temperature water bath pot at 37° C. and timed incubation was started for 5, 10, 20, 30 and 60 min.
(§14) f. Stopping reaction: After the corresponding time of incubation, 400 μL of stop solution was added to stop the reaction, and then the sample was immediately shaken for 1 min. The sample was centrifuged at 13500 rpm for 10 min at 10° C. After centrifugation, the supernatant was removed, diluted with water according to the needs of each compound, and analyzed by LC-MS. For the 0-minute sample, the stop solution was first added and mixed evenly with the liver microsomes, and then the NADPH working solution was added. For the negative control sample, 20 μL of 30 mM MgCl2 solution was added instead of the NADPH working solution.
(§15) T1/2 and CLint(mic) were calculated by the following formula.
(§16) [formula] [formula] • CLint(mic)=0.693/T1/2/liver microsomal protein concentration during incubation (mg/mL) • CLint(ver)=CLint(mic)*liver microsomal protein (mg)/liver weight (g)*liver weight to body weight ratio
(§17) Liver microsomal protein (mg)/liver weight (g): the value is 45 in both animal and human species.
(§18) Liver weight to body weight ratio: the parameters for mice, rats and humans are 88, 40 and 20 g/kg respectively.

[3] = Metabolic stability in rat liver microsomes; format: in vitro ADME; settings: for CLint scaled at 1 µM / half-life at 1 µM: pH 7.4; for microsomal CLint at 1 µM: pH 7.4, read-out: CLint(mic)
Description: as §9, §10, §11, §12, §13, §14, §15, §16, §17, §18

[4] = Metabolic stability in human liver microsomes; format: in vitro ADME; settings: for CLint scaled at 1 µM / half-life at 1 µM: pH 7.4; for microsomal CLint at 1 µM: pH 7.4, read-out: CLint(mic)
Description: as §9, §10, §11, §12, §13, §14, §15, §16, §17, §18

[5] = PLK1 kinase, highest concentration 1 μM, 10 points, read-out: IC50
[6] = HCT-116, HCT116 cells, 72 h, read-out: IC50

T1 sequence (P53350 whole entry): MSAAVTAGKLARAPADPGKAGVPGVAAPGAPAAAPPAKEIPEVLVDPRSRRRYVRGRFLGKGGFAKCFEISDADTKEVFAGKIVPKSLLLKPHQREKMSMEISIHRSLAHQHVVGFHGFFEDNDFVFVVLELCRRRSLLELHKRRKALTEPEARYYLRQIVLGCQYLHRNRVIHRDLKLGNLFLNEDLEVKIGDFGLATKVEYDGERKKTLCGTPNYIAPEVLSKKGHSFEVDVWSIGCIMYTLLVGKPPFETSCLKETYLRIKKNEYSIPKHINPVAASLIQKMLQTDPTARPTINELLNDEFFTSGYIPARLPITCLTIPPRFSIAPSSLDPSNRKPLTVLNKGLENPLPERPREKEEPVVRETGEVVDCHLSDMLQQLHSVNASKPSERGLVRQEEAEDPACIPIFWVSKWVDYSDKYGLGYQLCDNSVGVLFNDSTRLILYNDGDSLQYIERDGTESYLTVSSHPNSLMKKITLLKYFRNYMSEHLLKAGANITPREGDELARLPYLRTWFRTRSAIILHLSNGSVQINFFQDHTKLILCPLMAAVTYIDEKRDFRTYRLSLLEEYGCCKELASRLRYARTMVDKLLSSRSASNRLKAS

Structure (SMILES): CN1CCN(c2ccc(OC(F)(F)F)c(Nc3ncc4c(n3)-c3c(c(C(N)=O)nn3CCO)N(C)C4)c2)CC1 [Compound 5]
- IC50 (PLK1 kinase; [5]): 73.3 nM
- Imax (PLK1 kinase): 76.81%
- IC50 (HCT116 cells; [6]): 924 nM

Structure (SMILES): CN1CCN(c2ccc(OC(F)(F)F)c(Nc3ncc4ncc5c(C(N)=O)nn(CCO)c5c4n3)c2)CC1 [Compound 6]
- IC50 (HCT116 cells; [6]): 2720 nM

Structure (SMILES): CCc1sc(C(N)=O)c2c1-c1nc(Nc3cc(N4CCN(C)CC4)ccc3OC(F)(F)F)ncc1CC2 [Compound 7]
- IC50 (PLK1 kinase; [5]): 0.79 nM
- Imax (PLK1 kinase): 100.68%
- efflux ratio at 120 min ([1]; Caco-2, pH 7.4): 1.97
- Papp at 120 min ([1]; Caco-2, pH 7.4, read-out: Classification Permeability): < 0.5 ×10⁻⁶ cm/s
- Papp A→B at 120 min ([1]; pH 7.4, Caco-2, apical to basolateral, 120 min, pH 7.40): 0.275 ×10⁻⁶ cm/s
- Papp B→A at 120 min ([1]; pH 7.4, Caco-2, basolateral to apical, 120 min, pH 7.40): 0.542 ×10⁻⁶ cm/s
- Classification Efflux transporter substrate (Caco-2 cells): Very unlikely or not (ERa < 2.00)
- 60 min remaining amount [2]: 2.92%
- Clearance rate [2]: High
- CLint scaled at 1 µM ([2]; mouse): 940 mL/min/kg
- half-life at 1 µM ([2]; mouse): 5.84 min
- microsomal CLint at 1 µM ([2]; mouse): 237 µL/min/mg
- 60 min remaining amount [3]: 2.06%
- Clearance rate [3]: High
- CLint scaled at 1 µM ([3]; rat): 1090 mL/min/kg
- half-life at 1 µM ([3]; rat): 2.3 min
- microsomal CLint at 1 µM ([3]; rat): 603 µL/min/mg
- 60 min remaining amount [4]: 14.1%
- Clearance rate [4]: High
- CLint scaled at 1 µM ([4]; human): 60.7 mL/min/kg
- half-life at 1 µM ([4]; human): 20.6 min
- microsomal CLint at 1 µM ([4]; human): 67.4 µL/min/mg

Structure (SMILES): CN1CCN(c2ccc(OC(F)(F)F)c(Nc3ncc4c(n3)-c3c(c(C(=O)NO)nn3CCF)CC4)c2)CC1 [Compound 17]
- IC50 (PLK1 kinase; [5]): 0.814 nM
- Imax (PLK1 kinase): 99.97%
- 60 min remaining amount [2]: 2.46%
- Clearance rate [2]: High
- CLint scaled at 1 µM ([2]; mouse): 470 mL/min/kg
- half-life at 1 µM ([2]; mouse): 11.7 min
- microsomal CLint at 1 µM ([2]; mouse): 119 µL/min/mg
- 60 min remaining amount [3]: 1.93%
- Clearance rate [3]: High
- CLint scaled at 1 µM ([3]; rat): 410 mL/min/kg
- half-life at 1 µM ([3]; rat): 6.08 min
- microsomal CLint at 1 µM ([3]; rat): 228 µL/min/mg
- 60 min remaining amount [4]: 26.0%
- Clearance rate [4]: Medium
- CLint scaled at 1 µM ([4]; human): 41.8 mL/min/kg
- half-life at 1 µM ([4]; human): 29.9 min
- microsomal CLint at 1 µM ([4]; human): 46.4 µL/min/mg

Structure (SMILES): CN1CCN(c2ccc(OC(F)(F)F)c(Nc3ncc4ccc5c(C(=O)NO)nn(CCO)c5c4n3)c2)CC1 [Compound 19]
- IC50 (PLK1 kinase): 1.06 nM
- Imax (PLK1 kinase): 99.97%
- IC50 (HCT116 cells; HCT-116, 72 h): 96 nM
- 60 min remaining amount [2]: 22.0%
- Clearance rate [2]: Medium
- CLint scaled at 1 µM [2]: 192 mL/min/kg
- half-life at 1 µM [2]: 28.5 min
- microsomal CLint at 1 µM [2]: 48.6 µL/min/mg
- 60 min remaining amount [3]: 11.9%
- Clearance rate [3]: Medium
- CLint scaled at 1 µM [3]: 127 mL/min/kg
- half-life at 1 µM [3]: 19.6 min
- microsomal CLint at 1 µM [3]: 70.8 µL/min/mg
- 60 min remaining amount [4]: 51.9%
- Clearance rate [4]: Medium
- CLint scaled at 1 µM [4]: 19.6 mL/min/kg
- half-life at 1 µM [4]: 63.6 min
- microsomal CLint at 1 µM [4]: 21.8 µL/min/mg

Structure (SMILES): CN1CCN(c2ccc(OC(F)(F)F)c(Nc3ncc4ccc5c(C(N)=O)cn(CCO)c5c4n3)c2)CC1 [Compound 21]
- IC50 (PLK1 kinase): 0.756 nM
- Imax (PLK1 kinase): 99.15%

Structure (SMILES): CN1CCN(c2ccc(OC(F)(F)F)c(Nc3ncc4ccc5c(C(N)=O)cn(C)c5c4n3)c2)CC1 [Compound 22]
- IC50 (PLK1 kinase; [5]): 1.51 nM
- Imax (PLK1 kinase): 99.99%

Source: patent publication US20260176249A1, “PROTEIN KINASE INHIBITOR, PREPARATION METHOD THEREFOR, AND APPLICATION THEREOF” (SHANDONG LUYE PHARMACEUTICAL CO., LTD., priority 2021, published 2026)
